Experimental data from US12655116B2, “Substituted isophthalic acid diamides” (Bayer Aktiengesellschaft, priority 2020, dated 2026).

What was measured:
[1] = test system: ABUTH; assay: Pre-emergence herbicidal action against ABUTH; assay type: in vivo, Abutilon theophrasti
Procedure, shortened: (§1)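 Herbicidal effect was assessed 3 weeks after treatment by visual comparison with untreated controls, 100% denoting dead plants. Aqueous WP or EC preparations had been applied at 600 to 800 l/ha with 0.2% wetting agent to the soil covering freshly sown seeds.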

[2] = test system: ALOMY; assay: Pre-emergence herbicidal action against ALOMY; assay type: in vivo, Alopecurus myosuroides; settings: pre-emergence
Procedure, shortened: as §1

[3] = test system: AMARE; assay: Pre-emergence herbicidal action against AMARE; assay type: in vivo, Amaranthus retroflexus
Procedure, shortened: as §1

[4] = test system: AVEFA; assay: Pre-emergence herbicidal action against AVEFA; assay type: in vivo, Avena fatua; settings: pre-emergence
Procedure, shortened: as §1

[5] = test system: ECHCG; assay: Pre-emergence herbicidal action against ECHCG; assay type: in vivo, Echinochloa crus-galli; settings: 80 g/ha
Procedure, shortened: as §1

[6] = test system: HORMU; assay: Pre-emergence herbicidal action against HORMU; assay type: in vivo, Hordeum murinum; settings: 80 g/ha, pre-emergence
From the text: Seeds of monocotyledonous and dicotyledonous weed plants and crop plants are laid out in sandy loam soil in wood-fiber pots and covered with soil. The compounds of the invention, formulated in the form of wettable powders (WP) or as emulsion concentrates (EC), are then applied to the surface of the covering soil in the form of an aqueous suspension or emulsion at a water application rate equivalent to 600 to 800 l/ha, with addition of 0.2% wetting agent. After the treatment, the pots are placed in a greenhouse and kept under good growth conditions for the trial plants. The damage to the test plants is scored visually after a test period of 3 weeks by comparison with untreated controls (herbicidal activity in percent (%): 100% activity=the plants have died, 0% activity=like control plants). […] The tables below illustrate, in an illustrative manner, the post-emergence herbicidal action of the compounds of the invention, the herbicidal activity being stated in percent.

[7] = test system: MATIN; assay: Pre-emergence herbicidal action against MATIN; assay type: in vivo, Matricaria inodora
Procedure, shortened: as §1

[8] = test system: POLCO; assay: Pre-emergence herbicidal action against POLCO; assay type: in vivo, Polygonum convolvulus; settings: Fallopia convolvulus, 504 h
Procedure, shortened: as §1

[9] = test system: SETVI; assay: Pre-emergence herbicidal action against SETVI; assay type: in vivo, Setaria viridis; settings: Setaria viridis, 504 h
Procedure, shortened: as §1

[10] = test system: STEME; assay: Pre-emergence herbicidal action against STEME; assay type: in vivo, Stellaria media
Procedure, shortened: as §1

[11] = test system: VIOTR; assay: Pre-emergence herbicidal action against VIOTR; assay type: in vivo, Viola tricolor
Procedure, shortened: as §1

[12] = test system: DIGSA; assay: Pre-emergence herbicidal action against DIGSA; assay type: in vivo, Digitaria sanguinalis
Procedure, shortened: as §1

[13] = test system: ABUTH; assay: Post-emergence herbicidal action against ABUTH; assay type: in vivo, Abutilon theophrasti; settings: visual assessment about 3 weeks after treatment vs untreated controls
Procedure, shortened: (§2)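 Herbicidal effect was scored visually in percent after about 3 weeks in the greenhouse. Plants had been raised in sandy loam and treated post-emergence at the one-leaf stage with formulated compound at 600 to 800 l/ha water plus 0.2% wetting agent.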

[14] = test system: ALOMY; assay: Post-emergence herbicidal action against ALOMY; assay type: in vivo, Alopecurus myosuroides; settings: Alopecurus myosuroides, 504 h, dosage 20 g/ha, visual assessment about 3 weeks after treatment vs untreated controls
Procedure, shortened: as §2

[15] = test system: AMARE; assay: Post-emergence herbicidal action against AMARE; assay type: in vivo, Amaranthus retroflexus; settings: 20 g/ha, visual assessment about 3 weeks after treatment, 100% = plants have died, 0% = like control plants
Procedure, shortened: as §2

[16] = test system: AVEFA; assay: Post-emergence herbicidal action against AVEFA; assay type: in vivo, Avena fatua; settings: 20 g/ha, visual assessment about 3 weeks after treatment, 100% = plants have died, 0% = like control plants
Procedure, shortened: as §2

[17] = test system: MATIN; assay: Post-emergence herbicidal action against MATIN; assay type: in vivo, Matricaria inodora; settings: dosage 20 g/ha
Procedure, shortened: as §2

[18] = test system: PHBPU; assay: Post-emergence herbicidal action against PHBPU; assay type: in vivo, Pharbitis purpurea; settings: Ipomoea purpurea, 504 h
Procedure, shortened: as §2

[19] = test system: SETVI; assay: Post-emergence herbicidal action against SETVI; assay type: in vivo, Setaria viridis; settings: Setaria viridis, 504 h
Procedure, shortened: as §2

[20] = test system: STEME; assay: Post-emergence herbicidal action against STEME; assay type: in vivo, Stellaria media
Procedure, shortened: as §2

[21] = test system: VERPE; assay: Post-emergence herbicidal action against VERPE; assay type: in vivo, Veronica persica; settings: 20 g/ha
Procedure, shortened: as §2

[22] = test system: VIOTR; assay: Post-emergence herbicidal action against VIOTR; assay type: in vivo, Viola tricolor
Procedure, shortened: as §2

[23] = test system: DIGSA; assay: Post-emergence herbicidal action against DIGSA; assay type: in vivo, Digitaria sanguinalis; settings: Digitaria sanguinalis, 504 h
Procedure, shortened: as §2

[24] = test system: PHBPU; assay: Pre-emergence herbicidal action against PHBPU; assay type: in vivo, Pharbitis purpurea; settings: dosage 80 g/ha
Procedure, shortened: as §1

[25] = test system: VERPE; assay: Pre-emergence herbicidal action against VERPE; assay type: in vivo, Veronica persica; settings: dosage 80 g/ha
Procedure, shortened: as §1

[26] = 80 g/ha, scored visually after 3 weeks vs untreated controls (100% = plants have died, 0% = like control plants)

## CCNC(=O)c1c(C(F)(F)F)ccc(C(=O)Nc2nnnn2C)c1Br [Example 1-208]
[1]; Abutilon theophrasti, 504 h, 80 g/ha, scored visually after 3 weeks vs untreated controls (100% = plants have died, 0% = like control plants)
  pest or weed control at 80 g/ha: 100%
[1]; Abutilon theophrasti, 504 h, dosage 20 g/ha, scored visually after 3 weeks vs untreated controls, 100% = plants have died, 0% = like control plants, read-out: Pre-emergence action against ABUTH (herbicidal activity in percent)
  pest or weed control at 20 g/ha: 100%
[2]; Alopecurus myosuroides, 504 h, 80 g/ha, scored visually after 3 weeks vs untreated controls (100% = plants have died, 0% = like control plants)
  pest or weed control at 80 g/ha: 100%
[2]; Alopecurus myosuroides, 504 h, 20 g/ha, scored visually after 3 weeks, 100% = plants have died, 0% = like control plants
  pest or weed control at 20 g/ha: 80%
[3]; Amaranthus retroflexus, 504 h, 20 g/ha, scored visually after 3 weeks vs untreated controls, 100% = plants have died, 0% = like control plants
  pest or weed control at 20 g/ha: 100%
[3]; Amaranthus retroflexus, 504 h, 80 g/ha, scored visually after 3 weeks vs untreated controls, 100% = plants have died, 0% = like control plants
  pest or weed control at 80 g/ha: 100%
[4]; Avena fatua, 504 h, 80 g/ha
  pest or weed control at 80 g/ha: 100%
[4]; Avena fatua, 504 h, 20 g/ha, scored visually after 3 weeks, 100% = plants have died, 0% = like control plants
  pest or weed control at 20 g/ha: 80%
[5]; Echinochloa crus-galli, 504 h
  pest or weed control at 80 g/ha: 100%
[6]; Hordeum murinum, 504 h
  pest or weed control at 80 g/ha: 80%
[7]; Tripleurospermum inodorum, 504 h, dosage 20 g/ha
  pest or weed control at 20 g/ha: 90%
[7]; Tripleurospermum inodorum, 504 h, dosage 80 g/ha
  pest or weed control at 80 g/ha: 100%
[8]; dosage 20 g/ha
  pest or weed control at 20 g/ha: 80%
[8]; dosage 80 g/ha
  pest or weed control at 80 g/ha: 90%
[9]; dosage 20 g/ha
  pest or weed control at 20 g/ha: 100%
[9]; dosage 80 g/ha
  pest or weed control at 80 g/ha: 100%
[10]; Stellaria media, 504 h, dosage 20 g/ha
  pest or weed control at 20 g/ha: 100%
[10]; Stellaria media, 504 h, dosage 80 g/ha
  pest or weed control at 80 g/ha: 100%
[11]; Viola tricolor, 504 h, dosage 20 g/ha
  pest or weed control at 20 g/ha: 100%
[11]; Viola tricolor, 504 h, dosage 80 g/ha
  pest or weed control at 80 g/ha: 100%
[12]; Digitaria sanguinalis, 504 h, dosage 20 g/ha
  pest or weed control at 20 g/ha: 100%
[12]; Digitaria sanguinalis, 504 h, dosage 80 g/ha
  pest or weed control at 80 g/ha: 100%
[13]; Abutilon theophrasti, 504 h, dosage 5 g/ha
  pest or weed control at 5 g/ha: 80%
[13]; Abutilon theophrasti, 504 h, dosage 20 g/ha
  pest or weed control at 20 g/ha: 90%
[14]
  pest or weed control at 20 g/ha: 80%
[15]; Amaranthus retroflexus, 504 h
  pest or weed control at 20 g/ha: 100%
[16]; Avena fatua, 504 h
  pest or weed control at 20 g/ha: 90%
[17]; Tripleurospermum inodorum, 504 h
  pest or weed control at 20 g/ha: 80%
[18]; dosage 5 g/ha
  pest or weed control at 5 g/ha: 80%
[18]; dosage 20 g/ha
  pest or weed control at 20 g/ha: 90%
[19]; dosage 5 g/ha
  pest or weed control at 5 g/ha: 80%
[19]; dosage 20 g/ha
  pest or weed control at 20 g/ha: 80%
[20]; Stellaria media, 504 h, 20 g/ha
  pest or weed control at 20 g/ha: 90%
[20]; Stellaria media, 504 h, dosage 5 g/ha
  pest or weed control at 5 g/ha: 90%
[21]; Veronica persica, 504 h
  pest or weed control at 20 g/ha: 80%
[22]; Viola tricolor, 504 h, 5 g/ha
  pest or weed control at 5 g/ha: 80%
[22]; Viola tricolor, 504 h, 20 g/ha
  pest or weed control at 20 g/ha: 100%
[23]; 5 g/ha
  pest or weed control at 5 g/ha: 80%
[23]; 20 g/ha
  pest or weed control at 20 g/ha: 90%

## CCCn1nnnc1NC(=O)c1ccc(C(F)(F)F)c(C(=O)NC(C)=O)c1Cl [Example 3-337]
[1]; [26]
  Pre-emergence action against ABUTH (herbicidal activity): 100%
[1]; dosage 20 g/ha, scored visually after 3 weeks vs untreated controls, 100% = plants have died, 0% = like control plants
  Pre-emergence action against ABUTH (herbicidal activity in percent): 100%
[2]; [26]
  Pre-emergence action against ALOMY (herbicidal activity): 100%
[3]; 20 g/ha, scored visually after 3 weeks vs untreated controls, 100% = plants have died, 0% = like control plants
  Pre-emergence action against AMARE in %: 100%
[3]; [26]
  Pre-emergence action against AMARE in %: 100%
[4]; 80 g/ha
  Pre-emergence action against AVEFA in %: 100%
[5]
  Pre-emergence action against ECHCG in %: 90%
[6]
  Pre-emergence action against HORMU in %: 100%
[7]; dosage 80 g/ha
  Pre-emergence action against MATIN in %: 100%
[24]
  Pre-emergence action against PHBPU in %: 90%
[10]; dosage 80 g/ha
  Pre-emergence action against STEME in %: 100%
[25]
  Pre-emergence action against VERPE in %: 100%
[11]; dosage 20 g/ha
  Pre-emergence action against VIOTR in %: 100%
[11]; dosage 80 g/ha
  Pre-emergence action against VIOTR in %: 100%
[12]; dosage 20 g/ha
  Pre-emergence action against DIGSA in %: 90%
[12]; dosage 80 g/ha
  Pre-emergence action against DIGSA in %: 100%
[13]; dosage 5 g/ha
  Post-emergence action against ABUTH in %: 80%
[13]; dosage 20 g/ha
  Post-emergence action against ABUTH in %: 80%
[15]
  Post-emergence action at 20 g/ha against AMARE in %: 100%
[16]
  Post-emergence action at 20 g/ha against AVEFA in %: 80%
[17]
  Post-emergence action against MATIN in %: 80%
[20]; 20 g/ha
  Post-emergence action against STEME in %: 100%
[21]
  Post-emergence action against VERPE in %: 90%
[22]; 20 g/ha
  Post-emergence action against VIOTR in %: 100%
